Source: article PMC3260273, “Allosteric Antagonism of Insect Odorant Receptor Ion Channels” (PLoS ONE, 2012)
Values belong to the compound of their own block, whether it stands above or below them.

Experiments:
HsOrco = target: T1, HsOrco (Harpegnathos saltator, UniProt E2BJ30); test: whole-cell patch clamp, HEK cells, […] antagonist against […] VUAA1; format: cell-based
T1 construct: gene Orco
T1 sequence (E2BJ30 1-479): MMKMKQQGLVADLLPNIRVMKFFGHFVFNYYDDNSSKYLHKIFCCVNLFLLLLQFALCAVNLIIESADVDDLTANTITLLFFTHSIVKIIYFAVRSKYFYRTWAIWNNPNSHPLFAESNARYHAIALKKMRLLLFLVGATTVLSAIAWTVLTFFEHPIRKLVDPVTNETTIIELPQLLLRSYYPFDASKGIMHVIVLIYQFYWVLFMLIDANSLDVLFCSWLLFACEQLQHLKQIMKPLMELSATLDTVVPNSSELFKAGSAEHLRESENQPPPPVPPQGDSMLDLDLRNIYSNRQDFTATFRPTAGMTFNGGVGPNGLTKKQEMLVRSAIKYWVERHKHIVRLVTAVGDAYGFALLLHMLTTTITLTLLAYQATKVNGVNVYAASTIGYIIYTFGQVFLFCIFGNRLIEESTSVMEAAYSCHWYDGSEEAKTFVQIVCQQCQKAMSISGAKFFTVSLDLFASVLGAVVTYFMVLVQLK

AgOrco [1] = target: T2, AgOrco (Anopheles gambiae, UniProt Q7QCC7); test: calcium mobilization in AgOrco-only HEK cells against VUAA1; whole-cell patch clamp; format: cell-based
T2 construct: gene Orco
T2 sequence (Q7QCC7 1-478): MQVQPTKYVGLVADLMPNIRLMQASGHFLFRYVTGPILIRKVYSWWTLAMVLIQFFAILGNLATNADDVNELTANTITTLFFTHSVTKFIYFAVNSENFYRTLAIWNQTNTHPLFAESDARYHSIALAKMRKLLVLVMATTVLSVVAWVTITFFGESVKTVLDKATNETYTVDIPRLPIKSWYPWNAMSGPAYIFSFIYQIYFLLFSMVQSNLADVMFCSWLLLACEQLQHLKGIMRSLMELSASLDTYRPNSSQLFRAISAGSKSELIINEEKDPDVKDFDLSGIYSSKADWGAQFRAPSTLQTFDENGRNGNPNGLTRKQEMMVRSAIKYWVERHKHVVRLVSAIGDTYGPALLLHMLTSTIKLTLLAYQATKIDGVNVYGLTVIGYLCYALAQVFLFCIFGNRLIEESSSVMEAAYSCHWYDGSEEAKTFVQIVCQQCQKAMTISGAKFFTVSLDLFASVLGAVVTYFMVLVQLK

AgOrco [2] = target: T2, AgOrco; test: calcium mobilization in AgOrco-only HEK cells against VUAA1; format: cell-based
AgOr65 = tested on: T3, AgOr65; test: calcium mobilization concentration response in AgOrco+AgOr65 HEK cells; patch clamp; format: cell-based, Anopheles gambiae
T3 construct: gene Or65; with AgOrco

TRPV1 = TRPV1 (Rattus norvegicus, UniProt O35433); test: whole-cell patch clamp in HEK cells, […] capsaicin; format: cell-based
Chain of TRPV1 (O35433 whole entry): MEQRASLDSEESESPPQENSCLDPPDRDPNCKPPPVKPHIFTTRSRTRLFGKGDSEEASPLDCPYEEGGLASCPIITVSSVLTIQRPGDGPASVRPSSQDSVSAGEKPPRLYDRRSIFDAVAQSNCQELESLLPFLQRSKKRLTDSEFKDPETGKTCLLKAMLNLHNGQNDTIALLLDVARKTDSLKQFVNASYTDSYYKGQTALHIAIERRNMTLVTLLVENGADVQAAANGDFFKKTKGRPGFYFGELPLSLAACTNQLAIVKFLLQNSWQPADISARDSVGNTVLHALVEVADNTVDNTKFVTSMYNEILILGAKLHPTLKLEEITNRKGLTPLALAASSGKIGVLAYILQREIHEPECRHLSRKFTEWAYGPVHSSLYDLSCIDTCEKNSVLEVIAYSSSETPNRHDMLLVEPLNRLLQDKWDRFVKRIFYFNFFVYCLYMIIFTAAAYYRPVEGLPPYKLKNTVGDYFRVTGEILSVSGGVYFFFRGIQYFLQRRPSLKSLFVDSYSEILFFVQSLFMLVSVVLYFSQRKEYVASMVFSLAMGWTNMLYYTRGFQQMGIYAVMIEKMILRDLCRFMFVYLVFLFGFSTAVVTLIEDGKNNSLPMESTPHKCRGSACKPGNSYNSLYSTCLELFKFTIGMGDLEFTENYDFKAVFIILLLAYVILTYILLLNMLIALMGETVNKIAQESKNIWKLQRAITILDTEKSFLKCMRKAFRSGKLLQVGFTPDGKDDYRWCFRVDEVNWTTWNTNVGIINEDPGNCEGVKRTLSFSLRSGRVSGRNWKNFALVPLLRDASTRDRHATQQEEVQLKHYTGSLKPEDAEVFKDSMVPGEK

- % (HsOrco): 63.9±2.2%
- IC50 (AgOrco [1]): 12.6 µM
SMILES: CCn1c(SCC(=O)N2c3ccccc3Sc3ccccc32)nnc1-c1ccco1 [VU0183254, 10-({[4-ethyl-5-(2-furyl)-4H-1,2,4-triazol-3-yl]thio}acetyl)-10H-phenothiazine]

- IC50 (AgOrco [2]): 1.58 mM
SMILES: CCn1c(SCC(=O)Nc2ccc(Br)cc2C)nnc1-c1cccnc1 [VU0450667, N-(4-bromo-2-methylphenyl)-2-((4-ethyl-5-(pyridin-3-yl)-4H-1,2,4-triazol-3-yl)thio)acetamide]

- EC50 (AgOr65): −6.69+/−.03 log M
SMILES: C=CCc1ccc(O)c(OC)c1 [eugenol]

SMILES: COc1cc(CNC(=O)CCCC/C=C/C(C)C)ccc1O [capsaicin]
- whole-cell patch clamp in HEK cells, 10 μM capsaicin (TRPV1): VU0183254 did not affect the macroscopic currents induced by the natural TRPV1 ligand capsaicin
